Molecules are shown by their SMILES.

The target in experiment [1] is T1, ErbB2 or EGFR.
T1 construct: enzymes purified from a baculovirus expression system
In words: ErbB enzyme substrate phosphorylation assay (HTRF), Method B (enzyme pre-incubated with compound 1 hour). Format: biochemical. Particulars: Table 1, enzyme Method B: enzyme mix incubated with compound 1 hour at 20° C., reaction started with substrate mix; class over ErbB2 or EGFR. As for the experimental part: Compounds of the present invention were tested for EGFR, ErbB-2, and ErbB-4 protein tyrosine kinase inhibitory activity in substrate phosphorylation assays using enzymes purified from a baculovirus expression system. Reagent production was conducted essentially as described in Brignola, P. S., et al, (2002) J. Biol. Chem. 277(2): 1576-1585.
The method measures the ability of the isolated enzyme to catalyse the transfer of the gamma-phosphate from ATP onto the tyrosine residue of a biotinylated synthetic peptide referenced “Peptide C” in Brignola, P. S., et al, (2002) J. Biol. Chem. 277(2):1576-1585. The extent of tyrosine phosphorylation was measured using an anti-phosphotyrosine antibody, and quantified by homogenous time-resolved fluorescence (HTRF).
Reactions were performed in black 384-well polystyrene flat-bottom plates in a final volume of 20 μl. Assays were performed by adding 10 μl of each of the following solutions, substrate Mix and enzyme mix: The Substrate mix contained 100 mM 3-[N-morpholino]propanesulfonic acid (MOPS) (pH 7.5), 2 mM MnCl2, 20 μM ATP, 0.01% Tween-20, 0.1 mg/mL (BSA), 0.8 uM peptide substrate, and 1 mM dithiothreitol. The enzyme mix contained 100 mM MOPS (pH7.5); 0.01% Tween-20; 0.1 mg/mL BSA, and either 0.8 nM EGFR, 10 nM ErbB2, or 1 nM ErbB4
During the course of these studies, two separate methods have been used to measure the potency of compounds. In Method A, the substrate mix was added to the compound plates first, then the reaction was started by adding the enzyme mix. In Method B, the enzyme mix was added to the compound plates and the plates were incubated at 20° C. for 1 hour. The reactions were then started by adding the substrate mix.
After initiating the reaction with either method describe above, the reactions were allowed to proceed for 90 minutes at 20° C. The reactions were then terminated by the addition of 20 μl 100 mM EDTA to each well. 40 μl/well of HTRF detection mix were added to the assay plates. The final concentrations of the detection reagents were: 100 mM HEPES (pH7.5), 0.1 mg/mL BSA, 15 nM streptavidin-labeled allophycocyanin (PerkinElmer), and 1 nM europium-labeled anti-phosphotyrosine antibody (PerkinElmer). Assay plates were left unsealed and were counted in a Wallac Multilabel Counter 1420 (PerkinElmer).
Compounds under analysis were dissolved in Me2SO to 1.0 mM and serially diluted 1 to 3 with Me2SO through twelve dilutions. 1 μl of each concentration was transferred to the corresponding well of an assay plate. This creates a final compound concentration range from 0.00027 to 47.6 μM.
The data for dose responses were plotted as % Inhibition calculated with the data reduction formula 100*(1−(U1−C2)/(C1−C2)) versus concentration of compound where U is the unknown value, C1 is the average control value obtained for 4.76% DMSO, and C2 is the average control value obtained for 0.035 M EDTA. Data were fitted with a curve described by: y=((Vmax*x)/(K+x))+Y2 where Vmax is the upper asymptote, Y2 is the Y intercept, and K is the IC50. The results for each compound were recorded as pIC50s, calculated as follows: pIC50=−Log 10(K)

Experiment [2] relates to Colo205 tumor cell lines. In words: Celltiter Glo growth inhibition assay (cellular Method B). The format is cell-based. Particulars: Homo sapiens, COLO 205, 72 h, Table 3, Method B Celltiter Glo, 3 days. As for the experimental part: (§1) Human breast tumor cells (BT474) were cultured in RPMI, (Invitrogen, 22400) containing 10% fetal bovine serum (FBS). Human head and neck tumor cells (HN5) were cultured in low glucose DMEM (Invitrogen, 12320) containing 10% FBS. Human colon tumor cells (Colo205) were cultured in DMEM (Invitrogen, 10564) containing 10% FBS. All cell lines were maintained at 37° C. in a humidified 5% CO2, 95% air incubator. Cells were harvested using trypsin/EDTA, counted using a haemocytometer, and plated in 30 microliters of the appropriate media described above, at the following densities, in a half area, black-walled, 96-well tissue culture plate (Corning 3882): BT474 3,000 cells/well, HN5 500 cells/well and Colo205 cells, 3,000 cells/well. The next day, compounds were diluted in DMEM containing 100 mg/ml gentamicin, from 10 mM stock solutions in DMSO. 30 microliters/well of these dilutions were added to the 30 microliters/well of media currently on the cell plates. Medium containing 0.6% DMSO was added to control wells. The final concentration of DMSO in all wells was 0.3%. Cells were incubated at 37° C., 5% CO2 for 3 days. Cell biomass was estimated using Celltiter Glo (Promega G7571). Briefly, plates were removed from the incubator and allowed to equilibrate to rt for 30 minutes. 60 microliters of Celltiter Glo reagent were added to each well of the treated cells and plates were shaken on an orbital plate shaker for 2 min. Plates were incubated without shaking for 30 more min and read in a luminometer with an integration time of 0.5 seconds per well. Percent inhibition of cell growth was calculated relative to vehicle treated control wells. Concentration of compound that inhibits 50% of vehicle control cell growth (IC50) was interpolated using nonlinear regression (Levenberg-Marquardt) and the equation, y=Vmax*(1−(x/(K+x)))+Y2, where “K” was equal to the IC50.
(In general: Cellular ATP, detected with luciferase, serves as a proxy for viable cell number.)

The subject of experiment [3] is BT474 and HN5 tumor cell lines. The description is as above. Format: cell-based. The following applies: Homo sapiens, BT-474, 72 h; Table 2, Method B Celltiter Glo, 3 days; class over BT474 and HN5. As for the experimental part:
as §1

A word on the IC50: it is the concentration needed to halve the response being measured. The low end stands for greater potency in that assay, the high end for weaker potency in that assay. In the case of `CN(C)C1Cc2ccc(Nc3nccc(-c4c(-c5ccc(F)c(NC(=O)Cc6cccs6)c5)nn5ccccc45)n3)cc2C1` (stereo not drawn) [Example 37, N-{5-[3-(2-{[2-(dimethylamino)-2,3-dihydro-1H-inden-5-yl]amino}-4-pyrimidinyl)pyrazolo[1,5-a]pyridin-2-yl]-2-fluorophenyl}-2-(2-thienyl)acetamide], the “Activity (Method)” value in experiment [1] is given as “+++ (B) (at least one pIC50 measurement of greater than 7 against either ErbB2 or EGFR)”. Also, the figures for the IC50 in experiment [2] and in experiment [3] were 100 to 1000 nM and below 100 nM, respectively.

For `CN1CCc2ccc(Nc3nccc(-c4c(-c5cccc(NC(=O)Cc6cccs6)c5)nn5cccc(F)c45)n3)cc2C1` [Example 30, N-[3-(4-fluoro-3-{2-[(2-methyl-1,2,3,4-tetrahydro-7-isoquinolinyl)amino]-4-pyrimidinyl}pyrazolo[1,5-a]pyridin-2-yl)phenyl]-2-(2-thienyl)acetamide], the “Activity (Method)” value in experiment [1] was “++ (B) (at least one pIC50 measurement greater than 6 against either ErbB2 or EGFR but no measurement greater than pIC50 of 7)”. In addition, the IC50 in experiment [2] and in experiment [3] was above 1000 nM each time.

Turning to `CS(=O)(=O)CCNCc1cccc(Nc2nccc(-c3c(-c4cccc(NC(=O)Cc5cccs5)c4)nn4ccccc34)n2)c1` [Example 41, N-{3-[3-(2-{[3-({[2-(Methylsulfonyl)ethyl]amino}methyl)phenyl]-amino}-4-pyrimidinyl)pyrazolo[1,5-a]pyridin-2-yl]phenyl}-2-(2-thienyl)acetamide], in experiment [1], the “Activity (Method)” value was “+++ (B) (at least one pIC50 measurement of greater than 7 against either ErbB2 or EGFR)”. For the same molecule, the IC50 in experiment [2] and in experiment [3] was 100 to 1000 nM in each case.

`O=C(Cc1c[nH]c2ccccc12)Nc1cccc(-c2nn3ccccc3c2-c2ccnc(Nc3cccc(-c4cnco4)c3)n2)c1` [Example 18, 2-(1H-Indol-3-yl)-N-{3-[3-(2-{[3-(1,3-oxazol-5-yl)phenyl]amino}-4-pyrimidinyl)pyrazolo[1,5-a]pyridin-2-yl]phenyl}acetamide]: in experiment [1], the “Activity (Method)” value is “++ (B) (at least one pIC50 measurement greater than 6 against either ErbB2 or EGFR but no measurement greater than pIC50 of 7)”. Besides, the IC50 was above 1000 nM in experiment [2] and 100 to 1000 nM in experiment [3].

As for `CN1CCC(N(C)CCOc2cc(Nc3nccc(-c4c(-c5cccc(NC(=O)Cc6cccs6)c5)nn5ccccc45)n3)ccc2Cl)C1` (stereo not drawn) [Example 46, N-{3-[3-(2-{[4-Chloro-3-({2-[methyl(1-methyl-3-pyrrolidinyl)amino]-ethyl}oxy)phenyl]amino}-4-pyrimidinyl)pyrazolo[1,5-a]pyridin-2-yl]phenyl}-2-(2-thienyl)acetamide], the “Activity (Method)” value in experiment [1] is given as “+++ (B) (at least one pIC50 measurement of greater than 7 against either ErbB2 or EGFR)”. Further, the IC50 in experiment [2] and in experiment [3] was above 1000 nM in each case.

In the case of `CN(C)CCOc1cccc(Nc2nccc(-c3c(-c4ccc(F)c(NC(=O)Cc5cccs5)c4)nn4ccccc34)n2)c1` [Example 38, N-[5-(3-{2-[(3-{[2-(dimethylamino)ethyl]oxy}phenyl)amino]-4-pyrimidinyl}pyrazolo[1,5-a]pyridin-2-yl)-2-fluorophenyl]-2-(2-thienyl)acetamide], the “Activity (Method)” value in experiment [1] is reported as “++ (B) (at least one pIC50 measurement greater than 6 against either ErbB2 or EGFR but no measurement greater than pIC50 of 7)”. Further, the IC50 in experiment [2] and in experiment [3] was 100 to 1000 nM each time.

As to `O=C(Cc1ccccn1)Nc1cccc(-c2nn3ccccc3c2-c2ccnc(Nc3cccc(-c4cnco4)c3)n2)c1` [Example 23, N-{3-[3-(2-{[3-(1,3-Oxazol-5-yl)phenyl]amino}-4-pyrimidinyl)pyrazolo[1,5-a]pyridin-2-yl]phenyl}-2-(2-pyridinyl)acetamide], the “Activity (Method)” value in experiment [1] was “+++ (B) (at least one pIC50 measurement of greater than 7 against either ErbB2 or EGFR)”. For the same molecule, the 50% inhibitory concentration (IC50) in experiment [2] and in experiment [3] was 100 to 1000 nM throughout.

As for `Cc1cc(CC(=O)Nc2cccc(-c3nn4ccccc4c3-c3ccnc(Nc4cccc(-c5cnco5)c4)n3)c2)on1` [Example 19, 2-(3-Methyl-5-isoxazolyl)-N-{3-[3-(2-{[3-(1,3-oxazol-5-yl)phenyl]amino}-4-pyrimidinyl)pyrazolo[1,5-a]pyridin-2-yl]phenyl}acetamide], in experiment [1], the “Activity (Method)” value is given as “+++ (B) (at least one pIC50 measurement of greater than 7 against either ErbB2 or EGFR)”. For the same molecule, the values for the IC50 in experiment [2] and in experiment [3] were above 1000 nM and 100 to 1000 nM, respectively.

Regarding `COc1ccc(Nc2nccc(-c3c(-c4cccc(NC(=O)Cc5cccs5)c4)nn4ccccc34)n2)cc1N1CCN(CCS(C)(=O)=O)CC1` [Example 47, N-[3-(3-{2-[(4-(Methyloxy)-3-{4-[2-(methylsulfonyl)ethyl]-1-piperazinyl}phenyl)amino]-4-pyrimidinyl}pyrazolo[1,5-a]pyridin-2-yl)phenyl]-2-(2-thienyl)acetamide], the “Activity (Method)” value in experiment [1] is recorded as “+++ (B) (at least one pIC50 measurement of greater than 7 against either ErbB2 or EGFR)”. Further, the values for the IC50 in experiment [2] and in experiment [3] were below 100 nM and 100 to 1000 nM, respectively.

Regarding `CN(C)CCOc1cccc(Nc2nccc(-c3c(-c4cccc(NC(=O)Cc5cccs5)c4)nn4cccc(F)c34)n2)c1` [Example 31, N-[3-(3-{2-[(3-{[2-(dimethylamino)ethyl]oxy}phenyl)amino]-4-pyrimidinyl}-4-fluoropyrazolo[1,5-a]pyridin-2-yl)phenyl]-2-(2-thienyl)acetamide], in experiment [1], the “Activity (Method)” value is “++ (B) (at least one pIC50 measurement greater than 6 against either ErbB2 or EGFR but no measurement greater than pIC50 of 7)”. In addition, the IC50 in experiment [2] and in experiment [3] was above 1000 nM throughout.

As to `O=C(Cc1ccsc1)Nc1cccc(-c2nn3ccccc3c2-c2ccnc(Nc3cccc(-c4cnco4)c3)n2)c1` [Example 17, N-{3-[3-(2-{[3-(1,3-Oxazol-5-yl)phenyl]amino}-4-pyrimidinyl)pyrazolo[1,5-a]pyridin-2-yl]phenyl}-2-(3-thienyl)acetamide], the “Activity (Method)” value in experiment [1] is given as “+++ (B) (at least one pIC50 measurement of greater than 7 against either ErbB2 or EGFR)”. The IC50 in experiment [2] and in experiment [3] was 100 to 1000 nM each time.
